A word on the IC50: it is the midpoint of a concentration-inhibition curve.

The subject of assay [1] is SXF 1186 human tumor xenograft cells. In words: Oncotest tumor clonogenic assay, SXF 1186. To be noted: colony formation, Sarcoma SXF 1186, osteoblastic osteosarcoma, md, read-out: Absolute IC50. The class given is cell-based.
Assay [2] deals with PRXF PC3M human tumor xenograft cells. In words: Oncotest tumor clonogenic assay, PRXF PC3M. The class given is cell-based. To be noted: PC-3M, colony formation, Prostate PRXF PC3M, adeno carcinoma, metastatic, pd, read-out: Absolute IC50.
Assay [3] relates to CXF 243 human tumor xenograft cells. In words: Oncotest tumor clonogenic assay, CXF 243. It counts as cell-based. Particulars: colony formation, Colon CXF 243, adeno carcinoma, pd, read-out: Absolute IC50.
Assay [4] concerns OVXF 550 human tumor xenograft cells. In words: Oncotest tumor clonogenic assay, OVXF 550. It counts as cell-based. To be noted: colony formation, Ovary OVXF 550, carcinoma, read-out: Absolute IC50.
The test system of assay [5] is CXF 280 human tumor xenograft cells. In words: Oncotest tumor clonogenic assay, CXF 280. The class given is cell-based. Particulars: colony formation, Colon CXF 280, adeno carcinoma, pd, read-out: Absolute IC50.
In assay [6] the test system is GXF 1172 human tumor xenograft cells. In words: Oncotest tumor clonogenic assay, GXF 1172. It counts as cell-based. Particulars: colony formation, Gastric GXF 1172, signet-ring cell carcinoma, pd, read-out: Absolute IC50.
The test system of a further assay is SJSA-1. In words: Cell proliferation assay (CellTiter-Glo), SJSA-1. To be noted: Homo sapiens, SJSA-1, 72 h. The class given is cell-based. As to the method: Plate cells in a 96-well plate at 2000 cells/well in 100 μL of cell specific medium (for U87MG use DMEM, 10% FBS, 25 mM 4-(2-hydroxyethyl)-1-piperazineethanesulfonic acid (HEPES), 1.0 mM sodium pyruvate, and 0.1 mM Non Essential Amino Acids (ATCC Cat.#30-2002); for HT1080 use Eagle's MEM, 10% FBS (ATCC Cat.#30-2003); for H1975, A2780, SJSA-1 and 786-O use RPMI 1640, 10% FBS (ATCC Cat.#30-2001); for A204 use McCoy's 5A, 10% FBS (ATCC Cat.#30-2007) except in column 1 use medium only as the blank control. Incubate the plates overnight at 37° C. and 5% CO2. On the next day, prepare compound stocks at 1 mM in DMSO and serially dilute in DMSO in a 96-well round bottom polypropylene plate. Assay compounds at 10 concentrations in duplicate, 4 compounds per plate.
Transfer 4 μL of the DMSO serial dilutions to a 96 well plate and add 196 μL of culture medium to create a 10× stock for dosing. Gently transfer 11 μL of each dosing stock to the corresponding well of the cell plate resulting in a 0.2% DMSO concentration and a 111 μL final volume. […]
Prepared the CellTiter-Glo reagent (Promega, Cat: G7571) and add 100 µL to each well after the incubation is complete, homogenize the cells by mixing on an orbital shaker for 2 min and then incubate at RT for 10 min to allow the luminescent signal to stabilize. Record the luminescent raw data with a Wallac Victor V plate reader. […]

The target in the next assay is PI3Ka (Homo sapiens, UniProt P42336). In words: PI3Ka Scintillation Proximity Assay. It counts as biochemical. To be noted: 10 μM ATP; n=2; read-out: absolute IC50. As for the experimental part:
Use the PI3Ka Scintillation Proximity Assay (PI3Ka SPA) to determine compound IC50 values against PI3Ka kinase. This assay assesses the activity PI3Ka in the presence of compound inhibitors by measuring incorporation of γ-P^33-ATP into phosphatidylinositol (4,5)bisphosphate (PIP2). Perform the kinase reactions in 40 μL reaction volumes in 96-well half-area flat bottom white with clear bottom polystyrene plates. Add PI3Ka to start the reaction. Final reaction conditions are 43.75 mM 2,2-bis(hydroxymethyl)-2,2′,2″-nitrilotriethanol (Bis-Tris) pH 7.0, 306 mM sodium chloride (NaCl), 1.76 mM polyethylene glycol octylphenyl ether (Triton® X-100), 10 μM adenosine triphosphate (ATP), 2.9 mM magnesium chloride (MgCl2) and 1 μCi per well γ-P^33-adenosine triphosphate (γ-P^33-ATP), 5.0 nM PI3Ka human recombinant enzyme, 0.2 mM palmitoyl-oleoyl phosphatidylserine (POPS), 0.04 mM phosphatidylinositol (4,5)bisphosphate (PIP2), 4% DMSO and serial dilutions of compound (diluted 1:3 from 20,000 to 1 nM). Incubate at RT for 90 min after adding PI3Ka. Stop the reaction with the addition of 40 μL of a stopping buffer containing 2.5 mg/mL neomycin linked beads (Amersham, Cat# RPNQ0506) and 21 mM ethylenediaminetetraacetic acid (EDTA). Centrifuge plates for 30 min at 1000 revolutions per minute (RPM) and count radioactivity with a Wallac Microbeta Trilux normalized for P^33. […]
Background: In a scintillation proximity assay essentially only radioactivity close to the scintillant gives light.

PI3Ka, sequence (P42336 whole entry): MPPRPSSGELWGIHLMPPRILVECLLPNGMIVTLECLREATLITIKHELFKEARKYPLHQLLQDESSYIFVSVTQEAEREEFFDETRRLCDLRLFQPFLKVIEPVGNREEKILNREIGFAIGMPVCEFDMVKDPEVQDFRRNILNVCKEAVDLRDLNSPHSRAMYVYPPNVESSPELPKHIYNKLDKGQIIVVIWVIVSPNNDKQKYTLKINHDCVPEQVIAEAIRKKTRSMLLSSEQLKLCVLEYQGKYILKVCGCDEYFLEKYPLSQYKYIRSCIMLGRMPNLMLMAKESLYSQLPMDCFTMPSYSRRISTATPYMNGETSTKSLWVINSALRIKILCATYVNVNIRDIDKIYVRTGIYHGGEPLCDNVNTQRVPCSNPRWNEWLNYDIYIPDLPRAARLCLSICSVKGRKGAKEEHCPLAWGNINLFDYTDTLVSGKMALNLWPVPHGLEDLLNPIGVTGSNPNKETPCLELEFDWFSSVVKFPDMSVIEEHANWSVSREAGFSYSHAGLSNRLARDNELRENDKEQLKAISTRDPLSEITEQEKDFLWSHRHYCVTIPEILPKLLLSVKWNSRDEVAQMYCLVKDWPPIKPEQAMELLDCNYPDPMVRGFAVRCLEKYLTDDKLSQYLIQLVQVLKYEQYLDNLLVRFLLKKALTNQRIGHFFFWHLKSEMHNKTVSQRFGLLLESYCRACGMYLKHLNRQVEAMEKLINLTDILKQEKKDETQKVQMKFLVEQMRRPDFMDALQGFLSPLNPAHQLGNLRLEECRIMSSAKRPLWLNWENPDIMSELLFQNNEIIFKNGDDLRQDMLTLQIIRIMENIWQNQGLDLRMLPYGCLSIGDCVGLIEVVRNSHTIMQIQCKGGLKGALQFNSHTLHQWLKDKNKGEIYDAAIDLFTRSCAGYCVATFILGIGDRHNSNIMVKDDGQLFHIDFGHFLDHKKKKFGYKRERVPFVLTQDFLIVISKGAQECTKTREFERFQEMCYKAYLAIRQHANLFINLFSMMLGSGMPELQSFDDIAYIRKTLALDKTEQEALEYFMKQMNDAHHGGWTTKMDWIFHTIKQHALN
PI3Ka, sequence (P27986 whole entry partner): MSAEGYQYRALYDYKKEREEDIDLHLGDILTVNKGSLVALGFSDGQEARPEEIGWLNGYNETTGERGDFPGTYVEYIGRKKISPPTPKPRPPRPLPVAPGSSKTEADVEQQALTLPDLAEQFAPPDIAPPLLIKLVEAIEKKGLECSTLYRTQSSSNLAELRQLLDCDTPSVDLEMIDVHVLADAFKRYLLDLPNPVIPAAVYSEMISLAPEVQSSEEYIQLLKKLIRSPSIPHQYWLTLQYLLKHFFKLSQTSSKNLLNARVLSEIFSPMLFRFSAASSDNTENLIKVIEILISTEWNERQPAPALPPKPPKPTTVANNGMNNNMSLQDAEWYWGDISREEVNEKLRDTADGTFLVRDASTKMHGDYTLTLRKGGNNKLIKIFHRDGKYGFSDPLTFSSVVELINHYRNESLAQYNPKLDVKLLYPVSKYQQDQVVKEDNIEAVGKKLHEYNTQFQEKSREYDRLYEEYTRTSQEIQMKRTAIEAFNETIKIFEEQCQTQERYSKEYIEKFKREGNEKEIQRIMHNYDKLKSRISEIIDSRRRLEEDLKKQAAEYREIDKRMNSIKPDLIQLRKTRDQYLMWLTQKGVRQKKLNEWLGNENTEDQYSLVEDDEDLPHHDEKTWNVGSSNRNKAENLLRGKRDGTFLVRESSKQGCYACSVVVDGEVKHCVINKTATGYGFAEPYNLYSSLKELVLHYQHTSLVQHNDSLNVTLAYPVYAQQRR

In the case of `CO[C@@H](C)Cn1c(=O)n(C)c2cnc3ccc(-c4cncc(C(C)(C)O)c4)cc3c21` [Example 1, 8-[5-(1-Hydroxy-1-methylethyl)pyridin-3-yl]-1-[(2S)-2-methoxypropyl]-3-methyl-1,3-dihydro-2H-imidazo[4,5-c]quinolin-2-one], the IC50 is 110 nM in assay [1]; 208 nM in assay [2]; 237 nM in assay [3]; 28 nM in assay [4]; 7 nM in assay [5]; 141 nM in assay [6]. In addition, the IC50 in the assay with SJSA-1 turned out to be 96 nM; on PI3Ka, 6.07 nM.

These data come from patent US8658668B2, “PI3 kinase/mTOR dual inhibitor” (Eli Lilly and Company, priority 2011, dated 2014).
